This is an account of results in patent US8076352B2, “Administration of carboline derivatives useful in the treatment of cancer and other diseases” (PTC Therapeutics, Inc., priority 2004, dated 2011).

This assay relates to hypoxia-inducible endogenous VEGF expression in HeLa cells. Description: Hypoxia-inducible endogenous VEGF expression, VEGF ELISA of conditioned media (dose-response EC50). The conditions noted are these: Homo sapiens, HeLa cells, hypoxic conditions (1% O2). In kind it is cell-based. Summed up: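 Secreted VEGF was quantified by ELISA against a per-assay standard curve after HeLa cells spent 24-48 h in 1% O2, 5% CO2, N2 balance with or without compound. Across a series of, e.g., seven concentrations, percentage inhibition (max 100%, min 0%) gave EC50 and CC50 values.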
For orientation: In an ELISA, binding on a coated surface is turned into a signal by an enzyme label.
Turning to `COCCOCCOc1ccc(C2c3[nH]c4ccc(Cl)cc4c3CCN2C(=O)Oc2ccc(Br)cc2)cc1` (stereo not drawn) [Compound 680], the EC50 (as a rule, the concentration at which the effect is half-maximal) is < 8 nM.
As for `COCCOCCOc1ccc(C2c3[nH]c4ccc(Cl)cc4c3CCN2C(=O)Oc2ccc([N+](=O)[O-])cc2)cc1` (stereo not drawn) [Compound 681], the figure is 8 to 40 nM; as for `O=C(Oc1ccc(Cl)cc1)N1CCc2c([nH]c3ccc(Cl)cc23)C1c1ccc(OCCCCN2CCCC2)cc1` (stereo not drawn) [Compound 698], 8 to 40 nM; as for `O=C(Oc1ccc(Cl)cc1)N1CCc2c([nH]c3ccc(Cl)cc23)C1c1ccc(OCCCCNCCO)cc1` (stereo not drawn) [Compound 699], 8 to 40 nM.
`CC(C)NCCCCOc1ccc(C2c3[nH]c4ccc(Cl)cc4c3CCN2C(=O)Oc2ccc(Cl)cc2)cc1` (stereo not drawn) [Compound 700] came in with an EC50 of 8 to 40 nM.
Then `COCCCNCCCCOc1ccc(C2c3[nH]c4ccc(Cl)cc4c3CCN2C(=O)Oc2ccc(Cl)cc2)cc1` (stereo not drawn) [Compound 701], with 8 to 40 nM; and `O=C(Oc1ccc(Cl)cc1)N1CCc2c([nH]c3ccc(Cl)cc23)C1c1ccc(OCCCCN2CCOCC2)cc1` (stereo not drawn) [Compound 702], with 8 to 40 nM; and `O=C(Oc1ccc(Cl)cc1)N1CCc2c([nH]c3ccc(Cl)cc23)C1c1ccc(OCCCCN2CCCCC2)cc1` (stereo not drawn) [Compound 703], with 8 to 40 nM.
As for `CN1CCN(CCCCOc2ccc(C3c4[nH]c5ccc(Cl)cc5c4CCN3C(=O)Oc3ccc(Cl)cc3)cc2)CC1` (stereo not drawn) [Compound 704], the figure is 40 to 200 nM; as for `O=C(Oc1ccc(Cl)cc1)N1CCc2c([nH]c3ccc(Cl)cc23)C1c1ccc(OCCCCn2ccnc2)cc1` (stereo not drawn) [Compound 705], 8 to 40 nM.
Then `O=C(Oc1ccc(Cl)cc1)N1CCc2c([nH]c3ccc(Cl)cc23)C1c1ccc(OCCCCn2cncn2)cc1` (stereo not drawn) [Compound 706], with < 8 nM.
Consider `O=C(Oc1ccccc1)N1CCc2c([nH]c3ccc(Cl)cc23)C1c1ccc(OCCCCl)cc1` (stereo not drawn) [Compound 710], for which the EC50 is < 8 nM.
Then `O=C(Oc1ccc(F)cc1)N1CCc2c([nH]c3ccc(Cl)cc23)C1c1ccc(OCCCCl)cc1` (stereo not drawn) [Compound 712], with < 8 nM; and `O=C(Oc1ccccc1Cl)N1CCc2c([nH]c3ccc(Cl)cc23)C1c1ccc(OCCCCl)cc1` (stereo not drawn) [Compound 713], with 8 to 40 nM; and `O=C(Oc1ccc(F)cc1)N1CCc2c([nH]c3ccc(Cl)cc23)C1c1ccc(OCCCCCl)cc1` (stereo not drawn) [Compound 719], with < 8 nM.
In the case of `O=C(Oc1ccc(F)cc1)N1CCc2c([nH]c3ccc(Cl)cc23)C1c1ccc(OCCCCCCCl)cc1` (stereo not drawn) [Compound 723], the EC50 was < 8 nM.
As for `O=C(Oc1ccc(F)cc1)N1CCc2c([nH]c3ccc(Cl)cc23)C1c1ccc(OCCCCNCCO)cc1` (stereo not drawn) [Compound 735], the figure is < 8 nM.
Then `O=C(Oc1ccc(F)cc1)N1CCc2c([nH]c3ccc(Cl)cc23)C1c1ccc(OCCCCN2CCCC2)cc1` (stereo not drawn) [Compound 736], with < 8 nM; and `COCCCNCCCCOc1ccc(C2c3[nH]c4ccc(Cl)cc4c3CCN2C(=O)Oc2ccc(F)cc2)cc1` (stereo not drawn) [Compound 737], with 8 to 40 nM; and `O=C(Oc1ccc(F)cc1)N1CCc2c([nH]c3ccc(Cl)cc23)C1c1ccc(OCCCCN2CCOCC2)cc1` (stereo not drawn) [Compound 738], with < 8 nM.
As for `O=C(Oc1ccc(F)cc1)N1CCc2c([nH]c3ccc(Cl)cc23)C1c1ccc(OCCCCN2CCCCC2)cc1` (stereo not drawn) [Compound 739], the figure is < 8 nM; as for `CN1CCN(CCCCOc2ccc(C3c4[nH]c5ccc(Cl)cc5c4CCN3C(=O)Oc3ccc(F)cc3)cc2)CC1` (stereo not drawn) [Compound 740], 40 to 200 nM.
Turning to `O=C(Oc1ccc(F)cc1)N1CCc2c([nH]c3ccc(Cl)cc23)C1c1ccc(OCCCCNCCCn2ccnc2)cc1` (stereo not drawn) [Compound 741], the EC50 fell in the range of 40 to 200 nM.
Then `O=C(Oc1ccc(F)cc1)N1CCc2c([nH]c3ccc(Cl)cc23)C1c1ccc(OCCCCn2ccnc2)cc1` (stereo not drawn) [Compound 742], with < 8 nM.
Then `O=C(Oc1ccc(F)cc1)N1CCc2c([nH]c3ccc(Cl)cc23)C1c1ccc(OCCCCn2cncn2)cc1` (stereo not drawn) [Compound 743], with < 8 nM; and `O=C(Oc1ccc(F)cc1)N1CCc2c([nH]c3ccc(Cl)cc23)C1c1ccc(OCCCCCCNCCO)cc1` (stereo not drawn) [Compound 772], with < 8 nM; and `O=C(Oc1ccc(F)cc1)N1CCc2c([nH]c3ccc(Cl)cc23)C1c1ccc(OCCCCCCN2CCCC2)cc1` (stereo not drawn) [Compound 773], with < 8 nM.
As for `CC(C)NCCCCCCOc1ccc(C2c3[nH]c4ccc(Cl)cc4c3CCN2C(=O)Oc2ccc(F)cc2)cc1` (stereo not drawn) [Compound 774], the figure is 8 to 40 nM; as for `COCCCNCCCCCCOc1ccc(C2c3[nH]c4ccc(Cl)cc4c3CCN2C(=O)Oc2ccc(F)cc2)cc1` (stereo not drawn) [Compound 775], < 8 nM.
`O=C(Oc1ccc(F)cc1)N1CCc2c([nH]c3ccc(Cl)cc23)C1c1ccc(OCCCCCCN2CCOCC2)cc1` (stereo not drawn) [Compound 776]: the concentration giving a half-maximal response (EC50) was < 8 nM.
Then `O=C(Oc1ccc(F)cc1)N1CCc2c([nH]c3ccc(Cl)cc23)C1c1ccc(OCCCCCCN2CCCCC2)cc1` (stereo not drawn) [Compound 777], with < 8 nM; and `CN1CCN(CCCCCCOc2ccc(C3c4[nH]c5ccc(Cl)cc5c4CCN3C(=O)Oc3ccc(F)cc3)cc2)CC1` (stereo not drawn) [Compound 778], with < 8 nM; and `O=C(Oc1ccc(F)cc1)N1CCc2c([nH]c3ccc(Cl)cc23)C1c1ccc(OCCCCCCNCCCn2ccnc2)cc1` (stereo not drawn) [Compound 779], with 40 to 200 nM.
As for `O=C(Oc1ccc(F)cc1)N1CCc2c([nH]c3ccc(Cl)cc23)C1c1ccc(OCCCCCCn2ccnc2)cc1` (stereo not drawn) [Compound 780], the figure is < 8 nM; as for `O=C(Oc1ccc(F)cc1)N1CCc2c([nH]c3ccc(Cl)cc23)C1c1ccc(OCCCCCCn2cncn2)cc1` (stereo not drawn) [Compound 781], < 8 nM.
Regarding `O=C(Oc1ccc(Cl)cc1)N1CCc2c([nH]c3ccc(Cl)cc23)C1c1ccc(OCCCCCCNCCO)cc1` (stereo not drawn) [Compound 782], the EC50 is < 8 nM.
As for `O=C(Oc1ccc(Cl)cc1)N1CCc2c([nH]c3ccc(Cl)cc23)C1c1ccc(OCCCCCCN2CCCC2)cc1` (stereo not drawn) [Compound 783], the figure is < 8 nM.
Then `CC(C)NCCCCCCOc1ccc(C2c3[nH]c4ccc(Cl)cc4c3CCN2C(=O)Oc2ccc(Cl)cc2)cc1` (stereo not drawn) [Compound 784], with < 8 nM; and `COCCCNCCCCCCOc1ccc(C2c3[nH]c4ccc(Cl)cc4c3CCN2C(=O)Oc2ccc(Cl)cc2)cc1` (stereo not drawn) [Compound 785], with < 8 nM; and `O=C(Oc1ccc(Cl)cc1)N1CCc2c([nH]c3ccc(Cl)cc23)C1c1ccc(OCCCCCCN2CCOCC2)cc1` (stereo not drawn) [Compound 786], with < 8 nM.
Then `O=C(Oc1ccc(Cl)cc1)N1CCc2c([nH]c3ccc(Cl)cc23)C1c1ccc(OCCCCCCN2CCCCC2)cc1` (stereo not drawn) [Compound 787], with < 8 nM; and `CN1CCN(CCCCCCOc2ccc(C3c4[nH]c5ccc(Cl)cc5c4CCN3C(=O)Oc3ccc(Cl)cc3)cc2)CC1` (stereo not drawn) [Compound 788], with 8 to 40 nM.
Compound `O=C(Oc1ccc(Cl)cc1)N1CCc2c([nH]c3ccc(Cl)cc23)C1c1ccc(OCCCCCCNCCCn2ccnc2)cc1` (stereo not drawn) [Compound 789] came in with a concentration for a half-maximal effect (EC50) of 40 to 200 nM.
As for `O=C(Oc1ccc(Cl)cc1)N1CCc2c([nH]c3ccc(Cl)cc23)C1c1ccc(OCCCCCCn2ccnc2)cc1` (stereo not drawn) [Compound 790], the half-maximal effective concentration (EC50) is < 8 nM.
With `O=C(Oc1ccc(Cl)cc1)N1CCc2c([nH]c3ccc(Cl)cc23)C1c1ccc(OCCCCCCn2cncn2)cc1` (stereo not drawn) [Compound 791], the EC50 was < 8 nM.
